Experimental data published in patent publication US8119647B2, “Fused pyrimidineone compounds as TRPV3 modulators” (Glenmark Pharmaceuticals S.A., priority 2008, dated 2012).
Read-outs that look alike come from different tables or passages of the source.

Biological target: T1, Human TRPV3 (Homo sapiens, UniProt Q8NET8)
T1 construct: expressed in transfected cells; host or cells: CHO cells (G-418 selection)
T1 sequence (Q8NET8 1-790): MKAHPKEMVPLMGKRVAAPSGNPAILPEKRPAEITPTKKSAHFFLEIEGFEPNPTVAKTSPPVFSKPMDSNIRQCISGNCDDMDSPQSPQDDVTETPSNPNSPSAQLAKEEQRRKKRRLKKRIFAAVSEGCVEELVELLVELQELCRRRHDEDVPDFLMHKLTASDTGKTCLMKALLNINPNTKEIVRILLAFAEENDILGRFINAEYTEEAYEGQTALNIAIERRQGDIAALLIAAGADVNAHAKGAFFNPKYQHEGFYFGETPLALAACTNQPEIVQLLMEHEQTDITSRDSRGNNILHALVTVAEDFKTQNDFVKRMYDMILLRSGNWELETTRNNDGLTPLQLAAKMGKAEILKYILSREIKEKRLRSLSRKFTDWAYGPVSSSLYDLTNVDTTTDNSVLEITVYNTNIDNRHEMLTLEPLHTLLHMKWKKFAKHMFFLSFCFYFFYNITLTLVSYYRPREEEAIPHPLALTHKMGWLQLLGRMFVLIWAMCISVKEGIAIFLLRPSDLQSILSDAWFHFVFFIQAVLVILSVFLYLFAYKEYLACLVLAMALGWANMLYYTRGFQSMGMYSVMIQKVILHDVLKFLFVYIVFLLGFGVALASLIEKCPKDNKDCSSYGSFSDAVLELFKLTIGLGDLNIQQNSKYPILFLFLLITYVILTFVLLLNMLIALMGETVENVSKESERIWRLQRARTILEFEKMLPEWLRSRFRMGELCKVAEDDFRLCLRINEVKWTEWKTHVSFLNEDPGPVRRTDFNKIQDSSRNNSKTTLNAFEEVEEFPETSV
Assay: Screening for TRPV3 antagonist using the 45Calcium uptake assay (inhibition of 2-APB induced cellular uptake of radioactive calcium)
Assay type: cell-based
Conditions: for inhibition at 1 µM / Percentage inhibition at 1.0 μM: 1.0 μM test compound; for inhibition at 1 µM: read-out: Percentage inhibition at 1.0 μM; for inhibition at 10 µM: read-out: Percentage inhibition at 10.0 μM; for IC50: class symbols
Source text: The illustrative examples of the present invention are screened for TRPV3 activity according to a modified procedure described in Tóth, A., Kedei, N., Wang, Y. and Blumberg, P. M. Life Sciences (2003), 73, 487-498. The screening of the compounds can be carried out by other methods and procedures known to a person skilled in the art. Such screening methods may be found in (a) Hu, H.-Z. et al. J. Biol. Chem. (2004), 279, 35741-35747; (b) Smith, G. D. et al. Nature (2002), 418, 186-190; (c) Peier, A. M. et al. Science (2002), 296, 2046-2049.
Screening for TRPV3 Antagonist Using the ^45Calcium Uptake Assay:
The inhibition of TRPV3 receptor activation was followed as inhibition of 2-aminoethoxydiphenylborate (2-APB) induced cellular uptake of radioactive calcium. Test compounds were dissolved in dimethyl sulfoxide (DMSO) to prepare 20 mM stock solution and then diluted using plain medium with DMEM/F-12 containing 1.8 mM CaCl2 to get desired concentration. Final concentration of DMSO in the reaction was 0.5% (v/v). Human TRPV3 expressing CHO cells were grown in DMEM/F-12 medium with 10% FBS, 1% penicillin-streptomycin solution, 400 μg/ml of G-418. Cells were seeded 24 h prior to the assay in 96 well plates so as to get ˜50,000 cells per well on the day of experiment. Cells were treated with test compounds for 10 minutes followed by addition of 2-APB at a final concentration of 500 μM and 5 μCi/ml ^45Ca^+2 for 4 minutes. Cells were washed and lysed using buffer containing 1% Triton X-100, 0.1% deoxycholate and 0.1% SDS. Radioactivity in the lysate was measured in Packardt Top count after addition of liquid scintillant. Concentration response curves were plotted as a % of maximal response obtained in the absence of test antagonist. IC50 value was calculated from concentration response curve by nonlinear regression analysis using GraphPad PRISM software.
Percentage inhibition at concentrations of 1.0 μM and 10.0 μM are given in the table along with IC50 (nM) values for selected examples.

[1] = human TRPV3 expressing CHO cells, 2-APB 500 μM
[2] = 10.0 μM test compound, human TRPV3 expressing CHO cells, 2-APB 500 μM

Row | Molecule | inhibition at 1 µM [1] [%] | inhibition at 10 µM [2] [%] | Percentage inhibition at 1.0 μM [1] [%] | Percentage inhibition at 10.0 μM [2] [%] | IC50 [1] [nM] | Percentage inhibition at 10.0 μM [%]
1 | COc1cccc(/C=C/c2nc3scc(C)n3c(=O)c2-c2ccc(OC(F)(F)F)cc2)c1OCC1CC1 [Example 76, 7-[(E)-2-(2-Cyclopropylmethoxy-3-methoxyphenyl)-1-ethenyl]-3-methyl-6-[4-(trifluoromethoxy)phenyl]-5H-[1,3]thiazolo[3,2-a]pyrimidin-5-one] | 61.9 | 79.3 |  |  |  | 
2 | COc1cccc(/C=C/c2nc3sc4ccccc4n3c(=O)c2-c2ccc(C#N)cc2)c1OCC1CCC1 [Example 89] |  |  | 26.90 | 57.53 |  | 
3 | COc1cccc(/C=C/c2nc3sccn3c(=O)c2-c2ccc(C#N)cc2)c1OCC(C)C [Example 12, 4-{7-[(E)-2-(2-Isobutoxy-3-methoxyphenyl)-1-ethenyl]-5-oxo-5H-[1,3]thiazolo[3,2-a]-pyrimidin-6-yl}benzonitrile] | 74.7 | 94.8 |  |  | < 250 | 
4 | CCCCOc1c(/C=C/c2nc3sccn3c(=O)c2-c2ccc(OC(F)(F)F)cc2)cccc1OC [Example 57, 7-[(E)-2-(2-Butoxy-3-methoxyphenyl)-1-ethenyl]-6-[4-(trifluoromethoxy)phenyl]-5H-[1,3]thiazolo[3,2-a]pyrimidin-5-one] | 79.4 | 91.9 |  |  | < 250 | 
5 | O=c1c(-c2ccc(OC(F)(F)F)cc2)c(/C=C/c2cccc(O)c2O)nc2sccn12 [Example 59] |  |  | 3.68 | 0.00 |  | 
6 | COc1cccc(/C=C/c2nc3sc4ccccc4n3c(=O)c2-c2ccc(C#N)cc2)c1OCc1ccccn1 [Example 90] |  |  | 51.24 |  |  | 81.57
7 | COCCOc1c(/C=C/c2nc3sccn3c(=O)c2-c2ccc(C#N)cc2)cccc1OC [Example 14, 4-{7-[(E)-2-(3-Methoxy-2-(2-methoxyethoxy)phenyl]-1-ethenyl}-5-oxo-5H-[1,3]-thiazolo[3,2-a]pyrimidin-6-yl}benzonitrile] | 41 | 88.1 |  |  |  | 
8 | COc1cccc(/C=C/c2nc3sccn3c(=O)c2-c2ccc(OC(F)(F)F)cc2)c1O [Example 69, 7-[(E)-2-(2-Hydroxy-3-methoxyphenyl)-1-ethenyl]-6-[4-(trifluoromethoxy)phenyl]-5H-[1,3]thiazolo[3,2-a]pyrimidin-5-one] | 51.5 | 91.5 |  |  |  | 
9 | COCCOc1c(/C=C/c2nc3sccn3c(=O)c2-c2ccc(C(F)(F)F)cc2)cccc1OC [Example 31, {7-[(E)-2-(2-Methoxyethoxy-3-methoxy)phenyl}vinyl]-6-[4-(trifluoromethyl)phenyl]-5H-[1,3]thiazolo[3,2-a]pyrimidin-5-one] | 66.9 | 97.2 |  |  | 250 to 500 | 
10 | COc1ccc(/C=C/c2nc3sccn3c(=O)c2-c2ccc(C(F)(F)F)cc2)cc1OCC1CC1 [Example 37, 7-[(E)-2-(3-Cyclopropylmethoxy-4-methoxyphenyl)-1-ethenyl]-6-[4-(trifluoromethyl)-phenyl]-5H-[1,3]thiazolo[3,2-a]pyrimidin-5-one] | 39.6 | 88.1 |  |  |  | 
11 | COc1cccc(/C=C/c2nc3sccn3c(=O)c2-c2ccc(N(C)C)cc2)c1OCC1CC1 [Example 6, 6-(4-Dimethylaminophenyl)-7-[(E)-2-(2-cyclopropylmethoxy-3-methoxyphenyl]-1-ethenyl]-5H-[1,3]thiazolo[3,2-a]pyrimidin-5-one] | 76 | 95.3 |  |  | 250 to 500 | 
12 | N#Cc1ccc(-c2c(/C=C/c3cccnc3)nc3sccn3c2=O)cc1 [Example 23, 4-{5-Oxo-7-[(E)-2-(3-pyridyl)-1-ethenyl]-5H-[1,3]thiazolo[3,2-a]pyrimidin-6-yl}-benzonitrile] | 15.4 | 1.2 |  |  |  | 
13 | CCOCCOc1cccc(/C=C/c2nc3sccn3c(=O)c2-c2ccc(OC(F)(F)F)cc2)c1OCC1CC1 [Example 62, 7-{(E)-2-[2-(Cyclopropylmethoxy)-3-(2-ethoxyethoxy)phenyl]-1-ethenyl}-6-(4-trifluoro-methoxyphenyl)-5H-[1,3]thiazolo[3,2-a]pyrimidin-5-one] |  |  | 30.6 | 55.9 |  | 
14 | COc1cccc(/C=C/c2nc3sccn3c(=O)c2-c2ccc(C(F)(F)F)cc2)c1OCC(C)(C)C [Example 29, 7-[(E)-2-(3-Methoxy-2-neopentyloxy)phenyl-1-ethenyl]-6-(4-(trifluoromethyl)phenyl)-5H-[1,3]thiazolo[3,2-a]pyrimidin-5-one] | 86.5 | 93.7 |  |  | < 250 | 
15 | COc1cccc(/C=C/c2nc3sccn3c(=O)c2-c2ccc(N(C)C)cc2)c1OCC(C)C [Example 41, 6-(4-Dimethylaminophenyl)-7-[(E)-2-(2-isobutoxy-3-methoxyphenyl)-1-ethenyl]-5H-[1,3]thiazolo[3,2-a]pyrimidin-5-one] | 75.5 | 84.5 |  |  | 250 to 500 | 
16 | 7-[(E)-2-(4-Chlorophenyl)vinyl]-6-phenyl-5H-[1,3]thiazolo[3,2-a]pyrimidin-5-one [Example 1] |  |  | 6.9 | 14.4 |  | 
17 | COCCOc1c(/C=C/c2nc3sc4ccccc4n3c(=O)c2-c2ccc(C(F)(F)F)cc2)cccc1OC [Example 92, 2-{(E)-2-[(2-Methoxyethoxy)-3-methoxyphenyl]-1-ethenyl}-3-(4-trifluoromethylphenyl)-4H-benzo[4,5][1,3]thiazolo-[3,2-a]pyrimidin-4-one] |  |  | 23.11 | 47.48 |  | 
18 | CCOc1ccc(-c2c(/C=C/c3cccc(OC)c3OCC3CC3)nc3sccn3c2=O)cc1 [Example 44, 7-[(E)-2-(2-Cyclopropylmethoxy-3-methoxyphenyl)-1-ethenyl]-6-(4-ethoxyphenyl)-5H-[1,3]thiazolo[3,2-a]pyrimidin-5-one] | 44 | 88.6 |  |  |  | 
19 | COc1cccc(/C=C/c2nc3sccn3c(=O)c2-c2ccc(OC(F)(F)F)cc2)c1OCCC(F)(F)F [Example 70, 7-[(E)-2-{3-Methoxy-2-(2-trifluoromethylethoxy)phenyl}-1-ethenyl]-6-[4-(trifluoromethoxy)phenyl]-5H-[1,3]thiazolo[3,2-a]pyrimidin-5-one] | 90.8 | 97.9 |  |  | < 250 | 
20 | COc1cccc(/C=C/c2nc3scc(C(F)(F)F)n3c(=O)c2-c2ccc(C#N)cc2)c1OCC(C)(C)C [Example 82, 4-{7-[(E)-2-(3-Methoxy-2-neopentyloxyphenyl)-1-ethenyl]-5-oxo-3-(trifluoromethyl)-5H-[1,3]thiazolo[3,2-a]pyrimidin-6-yl}benzonitrile] | 57.4 | 70.3 |  |  |  | 
21 | COc1cc(/C=C/c2nc3sccn3c(=O)c2-c2ccc(C(F)(F)F)cc2)ccc1OCC1CC1 [Example 38, 7-[(E)-2-(4-Cyclopropylmethoxy-3-methoxyphenyl)-1-ethenyl]-6-[4-(trifluoromethyl)-phenyl]-5H-[1,3]thiazolo[3,2-a]pyrimidin-5-one] | 28.6 | 50.2 |  |  |  | 
